Assay results published in US20250109118A1, “HETEROCYCLIC COMPOUNDS AS SHP2 INHIBITORS, COMPOSITIONS COMPRISING THE HETEROCYCLIC COMPOUND, AND METHODS OF USE THEREOF” (JS INNOMED HOLDINGS LTD., priority 2021, published 2025).
pIC50: −log10 of the molar value.

System: MiaPaCa-2 cells
Experiment: MiaPaCa-2 Cell proliferation assay in 3D culture (CCK8)
Assay type: cell-based
Details: Homo sapiens, MIA PaCa-2, 120 h; 3D spheroid culture, 5 days with compound, CCK8 readout
Experimental: MiaPaCa-2 Cell proliferation assay in 3D culture. To evaluate cell viability, MiaPaCa-2 cells in logarithmic growth phase were seeded at optimal density and grown in as spheroids. Cells were incubated for 24 hours prior to the addition of different concentrations of the compounds. Cells were cultured with the compounds for 5 days and the cell viability was assessed using CCK8. Briefly, 2500 cells were seeded in round bottom ultra-low attachment 96 well plates (coming) in growth media supplemented with 10% FBS and incubated at 37° C. for 24 hours. The compounds were dissolved in DMSO (Sigma) to obtain 10 mM stock solution. Then the compounds were serially diluted in 3-fold to ten concentrations; 5 μL of the dilution above was transferred to 95 uL culture media to obtain the 50× compound stock solution; 4 uL of the 50× compound above was then transferred to the wells containing cells with 196 μL of the culture medium to obtain the final 1× concentration. The final concentration of DMSO was 0.1%. Spheroid cells were incubated in compounds for 5 days. Then 20 μL WST-8 solution (DOJINDO, Cell Counting KIT-8) was added to each well. The plates were further incubated at 37° C. for 1.5 hours, and then absorbance at 450 nm was measured using a microplate reader. Each compound was tested in triplicate and the IC50 value was calculated using GraphPad Prism.
The IC50 values of for Compounds disclosed are listed in Table 2, A: ≤500 nM; B: >500 nM and ≤5 μM; C: >5 μM and ≤50 μM; and D: >50 μM.

| Structure (SMILES) | pIC50 |
| --- | --- |
| C[C@@H]1OCC2(CCN(c3cnc(Sc4cccc(NC(=O)NS(=O)(=O)c5ccc(F)cc5)c4Cl)cn3)CC2)[C@@H]1N [Example 78, N-((3-((5-((3S,4S)-4-amino-3-methyl-2-oxa-8-azaspiro[4.5]decan-8-yl)pyrazin-2-yl)thio)-2-chlorophenyl)carbamoyl)-4-fluorobenzenesulfonamide] | ≥ 6.30 |
| COc1ccc(S(=O)(=O)NC(=O)Nc2nccc(Sc3cnc(N4CCC5(CC4)CO[C@@H](C)[C@H]5N)cn3)c2Cl)cn1 [Example 54, N-((4-((5-((3S,4S)-4-amino-3-methyl-2-oxa-8-azaspiro[4.5]decan-8-yl)pyrazin-2-yl)thio)-3-chloropyridin-2-yl)carbamoyl)-6-methoxypyridine-3-sulfonamide] | ≥ 6.30 |
| C[C@@H]1OCC2(CCN(c3cnc(Sc4ccnc(NC(=O)NS(=O)(=O)c5ccccc5F)c4Cl)cn3)CC2)[C@@H]1N [Example 52, N-((4-((5-((3S,4S)-4-amino-3-methyl-2-oxa-8-azaspiro[4.5]decan-8-yl)pyrazin-2-yl)thio)-3-chloropyridin-2-yl)carbamoyl)-2-fluorobenzenesulfonamide] | ≥ 6.30 |
| C[C@@H]1OCC2(CCN(c3cnc(Sc4cccc(NC(=O)NS(=O)(=O)c5cccc(F)c5)c4Cl)cn3)CC2)[C@@H]1N [Example 62, N-((3-((5-((3S,4S)-4-amino-3-methyl-2-oxa-8-azaspiro[4.5]decan-8-yl)pyrazin-2-yl)thio)-2-chlorophenyl)carbamoyl)-3-fluorobenzenesulfonamide] | ≥ 6.30 |
| N[C@@H]1c2ncccc2CC12CCN(c1cnc(Sc3ccnc(NC(=O)NS(=O)(=O)c4ccccc4)c3Cl)cn1)CC2 [Example 14, (S)—N-((4-((5-(7-amino-5,7-dihydrospiro[cyclopenta[b]pyridine-6,4′-piperidin]-1′-yl)pyrazin-2-yl)thio)-3-chloropyridin-2-yl)carbamoyl)benzenesulfonamide] | 5.30 to 6.30 |
| C[C@@H]1OCC2(CCN(c3cnc(Sc4cccc(NC(=O)NS(=O)(=O)c5ccncc5)c4Cl)cn3)CC2)[C@@H]1N [Example 72, N-((3-((5-((3S,4S)-4-amino-3-methyl-2-oxa-8-azaspiro[4.5]decan-8-yl)pyrazin-2-yl)thio)-2-chlorophenyl)carbamoyl)pyridine-4-sulfonamide] | ≥ 6.30 |
| C[C@@H]1OCC2(CCN(c3cnc(Sc4ccnc(NC(=O)NS(C)(=O)=O)c4Cl)cn3)CC2)[C@@H]1N [Example 77, N-((4-((5-((3S,4S)-4-amino-3-methyl-2-oxa-8-azaspiro[4.5]decan-8-yl)pyrazin-2-yl)thio)-3-chloropyridin-2-yl)carbamoyl)methanesulfonamide] | ≥ 6.30 |
| C[C@@H]1OCC2(CCN(c3cnc(Sc4cccc(NS(=O)(=O)NC(=O)c5ccccc5)c4Cl)cn3)CC2)[C@@H]1N [Example 80, N—(N-(3-((5-((3S,4S)-4-amino-3-methyl-2-oxa-8-azaspiro[4.5]decan-8-yl)pyrazin-2-yl)thio)-2-chlorophenyl)sulfamoyl)benzamide] | ≥ 6.30 |
| C[C@@H]1OCC2(CCN(c3cnc(Sc4cccc(NC(=O)NS(=O)(=O)c5ccccc5F)c4Cl)cn3)CC2)[C@@H]1N [Example 10, N-((3-((5-((3S,4S)-4-amino-3-methyl-2-oxa-8-azaspiro[4.5]decan-8-yl)pyrazin-2-yl)thio)-2-chlorophenyl)carbamoyl)-2-fluorobenzenesulfonamide] | ≥ 6.30 |
| C[C@@H]1OCC2(CCN(c3cnc(Sc4cccc(NC(=O)NS(=O)(=O)c5cnn(C)c5)c4Cl)cn3)CC2)[C@@H]1N [Example 79, N-((3-((5-((3S,4S)-4-amino-3-methyl-2-oxa-8-azaspiro[4.5]decan-8-yl)pyrazin-2-yl)thio)-2-chlorophenyl)carbamoyl)-1-methyl-1H-pyrazole-4-sulfonamide] | ≥ 6.30 |
| Cc1noc(C)c1S(=O)(=O)NC(=O)Nc1cccc(Sc2cnc(N3CCC4(CC3)CO[C@@H](C)[C@H]4N)cn2)c1Cl [Example 65, N-((3-((5-((3S,4S)-4-amino-3-methyl-2-oxa-8-azaspiro[4.5]decan-8-yl)pyrazin-2-yl)thio)-2-chlorophenyl)carbamoyl)-3,5-dimethylisoxazole-4-sulfonamide] | ≥ 6.30 |
| C[C@@H]1OCC2(CCN(c3cnc(Sc4ccnc(NC(=O)NS(=O)(=O)c5cccc(F)c5)c4Cl)cn3)CC2)[C@@H]1N [Example 50, N-((4-((5-((3S,4S)-4-amino-3-methyl-2-oxa-8-azaspiro[4.5]decan-8-yl)pyrazin-2-yl)thio)-3-chloropyridin-2-yl)carbamoyl)-3-fluorobenzenesulfonamide] | ≥ 6.30 |
| Cc1nc(N2CCC3(CC2)CO[C@@H](C)[C@H]3N)c(CO)nc1Sc1ccnc(NC(=O)NS(=O)(=O)c2ccccc2)c1Cl [Example 59, N-((4-((5-((3S,4S)-4-amino-3-methyl-2-oxa-8-azaspiro[4.5]decan-8-yl)-6-(hydroxymethyl)-3-methylpyrazin-2-yl)thio)-3-chloropyridin-2-yl)carbamoyl)benzenesulfonamide] | ≥ 6.30 |

Further lines, results first:

| pIC50 | Structure (SMILES) |
| --- | --- |
| ≥ 6.30 | CC1(CN)CCN(c2cnc(Sc3ccnc(NC(=O)NS(=O)(=O)c4ccccc4)c3Cl)cn2)CC1 [Example 48, N-((4-((5-(4-(aminomethyl)-4-methylpiperidin-1-yl)pyrazin-2-yl)thio)-3-chloropyridin-2-yl)carbamoyl)benzenesulfonamide] |
| ≥ 6.30 | Cc1nc(N2CCC(C)(CN)CC2)c(CO)nc1Sc1ccnc(NC(=O)NS(=O)(=O)c2ccccc2)c1Cl [Example 9, N-((4-((5-(4-(aminomethyl)-4-methylpiperidin-1-yl)-6-(hydroxymethyl)-3-methylpyrazin-2-yl)thio)-3-chloropyridin-2-yl)carbamoyl)benzenesulfonamide] |
| ≥ 6.30 | C[C@@H]1OCC2(CCN(c3cnc(Sc4cccc(NC(=O)NS(=O)(=O)C5CC5)c4Cl)cn3)CC2)[C@@H]1N [Example 66, N-((3-((5-((3S,4S)-4-amino-3-methyl-2-oxa-8-azaspiro[4.5]decan-8-yl)pyrazin-2-yl)thio)-2-chlorophenyl)carbamoyl)cyclopropanesulfonamide] |
| ≥ 6.30 | C[C@@H]1OCC2(CCN(c3cnc(Sc4cccc(NC(=O)NS(=O)(=O)C5CCOC5)c4Cl)cn3)CC2)[C@@H]1N (stereo partly drawn) [Example 83, N-((3-((5-((3S,4S)-4-amino-3-methyl-2-oxa-8-azaspiro[4.5]decan-8-yl)pyrazin-2-yl)thio)-2-chlorophenyl)carbamoyl)tetrahydrofuran-3-sulfonamide] |
| ≥ 6.30 | C[C@@H]1OCC2(CCN(c3cnc(Sc4cccc(NC(=O)NS(=O)(=O)N5CCCCC5)c4Cl)cn3)CC2)[C@@H]1N [Example 75, N-((3-((5-((3S,4S)-4-amino-3-methyl-2-oxa-8-azaspiro[4.5]decan-8-yl)pyrazin-2-yl)thio)-2-chlorophenyl)carbamoyl)piperidine-1-sulfonamide] |
| ≥ 6.30 | C[C@@H]1OCC2(CCN(c3cnc(Sc4cccc(NC(=O)NS(=O)(=O)C5CCN(C)CC5)c4Cl)cn3)CC2)[C@@H]1N [Example 70, N-((3-((5-((3S,4S)-4-amino-3-methyl-2-oxa-8-azaspiro[4.5]decan-8-yl)pyrazin-2-yl)thio)-2-chlorophenyl)carbamoyl)-1-methylpiperidine-4-sulfonamide] |
| ≥ 6.30 | C[C@@H]1OCC2(CCN(c3cnc(Sc4cccc(NC(=O)NS(=O)(=O)N5CCC(N)C5)c4Cl)cn3)CC2)[C@@H]1N (stereo partly drawn) [Example 84, 3-amino-N-((3-((5-((3S,4S)-4-amino-3-methyl-2-oxa-8-azaspiro[4.5]decan-8-yl)pyrazin-2-yl)thio)-2-chlorophenyl)carbamoyl)pyrrolidine-1-sulfonamide] |
| ≥ 6.30 | C[C@@H]1OCC2(CCN(c3cnc(Sc4cccc(NC(=O)NS(=O)(=O)C5CCCCC5)c4Cl)cn3)CC2)[C@@H]1N [Example 69, N-((3-((5-((3S,4S)-4-amino-3-methyl-2-oxa-8-azaspiro[4.5]decan-8-yl)pyrazin-2-yl)thio)-2-chlorophenyl)carbamoyl)cyclohexanesulfonamide] |
| 5.30 to 6.30 | CC1(CN)CCN(c2cnc(Sc3cccc(NC(=O)NS(=O)(=O)c4ccccc4F)c3Cl)c(N)n2)CC1 [Example 47, N-((3-((3-amino-5-(4-(aminomethyl)-4-methylpiperidin-1-yl)pyrazin-2-yl)thio)-2-chlorophenyl)carbamoyl)-2-fluorobenzenesulfonamide] |
| ≥ 6.30 | CC1(CN)CCN(c2cnc(Sc3cccc(NC(=O)NS(=O)(=O)c4ccccn4)c3Cl)c(N)n2)CC1 [Example 45, N-((3-((3-amino-5-(4-(aminomethyl)-4-methylpiperidin-1-yl)pyrazin-2-yl)thio)-2-chlorophenyl)carbamoyl)pyridine-2-sulfonamide] |
| ≥ 6.30 | CC1(CN)CCN(c2cnc(Sc3cccc(C(=O)NS(=O)(=O)C4CCCC4)c3Cl)c(N)n2)CC1 [Example 44, 3-((3-amino-5-(4-(aminomethyl)-4-methylpiperidin-1-yl)pyrazin-2-yl)thio)-2-chloro-N-(cyclopentylsulfonyl)benzamide] |
| ≥ 6.30 | C[C@@H]1OCC2(CCN(c3cnc(Sc4cccc(NC(=O)NS(=O)(=O)C5CCCC5)c4Cl)cn3)CC2)[C@@H]1N [Example 73, N-((3-((5-((3S,4S)-4-amino-3-methyl-2-oxa-8-azaspiro[4.5]decan-8-yl)pyrazin-2-yl)thio)-2-chlorophenyl)carbamoyl)cyclopentanesulfonamide] |
